Experimental data as given in patent US11001583B2, “Dihydropyrrolopyridine inhibitors of ROR-gamma” (Vitae Pharmaceuticals, LLC, priority 2014, dated 2021).

Experiments:
[1] = molecular target: hERG (human ether-à-go-go-related gene) potassium ion channel (Homo sapiens (Human), UniProt Q12809); test: hERG Assay (Assay 4); type: cell-based; settings: patch clamp, HEK 293 cells
Method: Compounds of the invention were tested in vitro against the hERG (human ether-à-go-go-related gene) potassium ion channel (a surrogate for IKr, the rapidly activating delayed rectifier cardiac potassium ion channel).
The buffer was HEPES-buffered physiological saline (HB-PS) solution composed of: 137 mM NaCl, 4.0 mM KCl, 1.8 mM CaCl2, 1 mM MgCl2, 10 mM HEPES, 10 mM glucose, pH adjusted to 7.4 with NaOH, and 0.3% DMSO. Chemicals used in solution preparation were purchased from Sigma-Aldrich (St. Louis, Mo.), unless otherwise noted, and were of ACS reagent grade purity or higher.
HEK (human embryonic kidney) 293 cells were stably transfected with hERG cDNA.
For the patch clamp experiment, onset and steady state inhibition of hERG potassium current was measured using a pulse pattern with fixed amplitudes (depolarization: +20 mV for 2 s; repolarization: −50 mV for 2 s) repeated at 10 s intervals from a holding potential of −80 mV. Peak tail current was measured during the 2 s step to −50 mV. A steady state was maintained for at least 30 seconds before applying compound or positive control (cisapride). Peak tail currents were measured until a new steady state was achieved.
Data acquisition and analyses were performed using the suite of pCLAMP® (ver. 8.2) programs (MDS Analytical Technologies, Sunnyvale, Calif.). Steady state was defined by the limiting constant rate of change with time (linear time dependence). The steady state before and after each compound application was used to calculate the percentage of current inhibited at each concentration.
Concentration-response data were fit to an equation of the following form: % Inhibition={1−1/[1+([Test]/IC50)N]}*100
where [Test] was the compound concentration, IC50 was the compound concentration at half-maximal inhibition, N was the Hill coefficient, and % Inhibition was the percentage of current inhibited at each compound concentration. Nonlinear least squares fits were solved with the Solver add-in for Excel 2003 (Microsoft, Wash.) and the IC50 was calculated.

IL-17A production = test: Human Whole Blood Assay (Assay 3); type: cell-based; settings: IL-17A secretion, 50% blood/media
Method: Human Whole Blood Assay (Assay 3)
Compounds of the invention were tested in the human whole blood assay to measure their effects on IL-17A production as determined by cytokine secretion into 50% blood/media supernatant. Mixtures of sodium heparinized whole blood (isolated from healthy human donors) and the T cell activator CytoStim, in the presence or absence of compound, were plated in sterilized, tissue culture-treated 24-well plates. Specifically, the mixtures in each well were as follows: (1) 500 μL of whole blood, (2) 250 μL of compound diluted into RPMI-1640 media containing 10% HyClone™ FCS (Thermo Fisher Scientific, Waltham, Mass.), Gibco® Pen/Strep and Gibco® NEAA (Life Technologies, Grand Island, N.Y.), and (3) 250 μL, of CytoStim (Miltenyi Biotech, Germany) diluted to a final concentration of 10 μL/mL in complete cell culture medium.
Mixtures were incubated at 37° C./5% CO2 for 48 h, after which, 200 μL of clean supernatant (i.e., no red blood cells) from each well was transferred to a well in a 96-well plate. IL-17A cytokine expression was determined using 25 μL of the transferred supernatant diluted with 25 μL of Diluent 43 from the Human IL-17A V-PLEX™ kit (cat. #K151RFD-4, Meso Scale Discovery, Rockville, Md.). The assay was performed according to the manufacturer's instructions using included reagents. The IL-17A V-PLEX™ plates were read using the Meso Scale Discovery Imager (Model 1200). The levels of IL-17A were extrapolated from a standard curve using a four-parameter non-linear fitting model and expressed as pg/mL. These values were regressed against concentrations of the tested compounds to derive IC50 values using a four-parameter non-linear fitting model.

[2] = molecular target: recombinant RORγ Ligand Binding Domain (LBD) protein (Homo sapiens (Human), UniProt P51449); test: Radio-Ligand RORγ Binding Assay (Assay 1); settings: competition with 25-hydroxy [26,27-3H]-cholesterol, SPA; read-out: RORγ Binding Ki Range (nM) (Assay 1)
recombinant RORγ Ligand Binding Domain (LBD) protein, sequence (P51449 269-508): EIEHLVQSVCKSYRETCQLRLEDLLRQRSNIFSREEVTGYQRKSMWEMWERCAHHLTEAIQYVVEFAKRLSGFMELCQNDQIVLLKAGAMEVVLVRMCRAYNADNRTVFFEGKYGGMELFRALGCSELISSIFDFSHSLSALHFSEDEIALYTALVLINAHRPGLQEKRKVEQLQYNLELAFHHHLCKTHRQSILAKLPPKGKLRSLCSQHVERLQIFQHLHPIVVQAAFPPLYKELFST
Method: Radio-Ligand RORγ Binding Assay (Assay 1)
Compounds of the present invention were tested for ability to bind to RORγ in a cell-free competition assay with commercially available radio-ligand (RL), 25-hydroxy [26,27-^3H]-cholesterol (PerkinElmer, Cat. #NET674250UC), for a ligand binding site on a recombinant RORγ Ligand Binding Domain (LBD) protein expressed as a 6×His-Glutathione-S-Transferase (GST) fusion. […] The plate was shaken at 700 rpm for 20 min and incubated for 10 min at rt, after which 40 μL of poly-Lys YSi SPA beads (PerkinElmer, Cat. #RPNQ0010) were added to achieve 50 μg of the beads per well. The plate was incubated on an orbital shaker for 20 min and then for 10 min without agitation at rt. SPA signal for tritium beta radiation was registered on PerkinElmer Microbeta plate reader. […] The percent inhibition vs. concentration data were fit into a four-parameter model, and IC50 values were calculated from the fit as the concentrations corresponding to the inflection points on the dose-response curves.

full-length RORγt = full-length RORγt (Homo sapiens (Human), UniProt P51449); test: RORγt 5×RORE Assay in Jurkat Cells (Assay 2); type: cell-based; settings: 5×RORE luciferase reporter, read-out: RORγt5X IC50 Range (nM) (Assay 2)
full-length RORγt, sequence (P51449 other isoform, or with tags, fused parts or gaps): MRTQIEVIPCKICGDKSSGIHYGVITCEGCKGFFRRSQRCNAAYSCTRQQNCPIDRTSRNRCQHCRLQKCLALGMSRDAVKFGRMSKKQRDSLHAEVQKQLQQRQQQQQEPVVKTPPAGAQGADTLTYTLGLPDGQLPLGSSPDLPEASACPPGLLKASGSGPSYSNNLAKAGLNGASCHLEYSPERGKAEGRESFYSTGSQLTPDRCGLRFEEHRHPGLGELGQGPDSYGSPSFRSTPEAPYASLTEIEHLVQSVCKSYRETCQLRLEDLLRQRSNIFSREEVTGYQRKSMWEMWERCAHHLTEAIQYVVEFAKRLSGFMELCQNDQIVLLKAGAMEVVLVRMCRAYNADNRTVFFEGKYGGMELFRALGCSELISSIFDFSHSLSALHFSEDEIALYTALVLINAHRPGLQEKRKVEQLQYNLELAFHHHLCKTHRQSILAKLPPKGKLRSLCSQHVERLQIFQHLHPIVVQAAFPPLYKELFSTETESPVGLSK
Method: RORγt 5×RORE Assay in Jurkat Cells (Assay 2)
Compounds of the present invention were tested for RORγ inverse agonist activity in a cell-based, transcriptional activity assay. […] (Promega, Cat. #N1021) using KpnI and HindIII restriction sites. […] Tested compounds were added to the cells in the same media (final concentration of DMSO was 0.1% (v/v)), and the plates were incubated at 37° C./5% CO2 for 16-18 hr. Luciferase activity in the conditioned supernatants was determined with NanoGlo® assay reagents (Promega, Cat. #N1130).

hERG (human ether-à-go-go-related gene) potassium ion channel, sequence (Q12809 whole entry): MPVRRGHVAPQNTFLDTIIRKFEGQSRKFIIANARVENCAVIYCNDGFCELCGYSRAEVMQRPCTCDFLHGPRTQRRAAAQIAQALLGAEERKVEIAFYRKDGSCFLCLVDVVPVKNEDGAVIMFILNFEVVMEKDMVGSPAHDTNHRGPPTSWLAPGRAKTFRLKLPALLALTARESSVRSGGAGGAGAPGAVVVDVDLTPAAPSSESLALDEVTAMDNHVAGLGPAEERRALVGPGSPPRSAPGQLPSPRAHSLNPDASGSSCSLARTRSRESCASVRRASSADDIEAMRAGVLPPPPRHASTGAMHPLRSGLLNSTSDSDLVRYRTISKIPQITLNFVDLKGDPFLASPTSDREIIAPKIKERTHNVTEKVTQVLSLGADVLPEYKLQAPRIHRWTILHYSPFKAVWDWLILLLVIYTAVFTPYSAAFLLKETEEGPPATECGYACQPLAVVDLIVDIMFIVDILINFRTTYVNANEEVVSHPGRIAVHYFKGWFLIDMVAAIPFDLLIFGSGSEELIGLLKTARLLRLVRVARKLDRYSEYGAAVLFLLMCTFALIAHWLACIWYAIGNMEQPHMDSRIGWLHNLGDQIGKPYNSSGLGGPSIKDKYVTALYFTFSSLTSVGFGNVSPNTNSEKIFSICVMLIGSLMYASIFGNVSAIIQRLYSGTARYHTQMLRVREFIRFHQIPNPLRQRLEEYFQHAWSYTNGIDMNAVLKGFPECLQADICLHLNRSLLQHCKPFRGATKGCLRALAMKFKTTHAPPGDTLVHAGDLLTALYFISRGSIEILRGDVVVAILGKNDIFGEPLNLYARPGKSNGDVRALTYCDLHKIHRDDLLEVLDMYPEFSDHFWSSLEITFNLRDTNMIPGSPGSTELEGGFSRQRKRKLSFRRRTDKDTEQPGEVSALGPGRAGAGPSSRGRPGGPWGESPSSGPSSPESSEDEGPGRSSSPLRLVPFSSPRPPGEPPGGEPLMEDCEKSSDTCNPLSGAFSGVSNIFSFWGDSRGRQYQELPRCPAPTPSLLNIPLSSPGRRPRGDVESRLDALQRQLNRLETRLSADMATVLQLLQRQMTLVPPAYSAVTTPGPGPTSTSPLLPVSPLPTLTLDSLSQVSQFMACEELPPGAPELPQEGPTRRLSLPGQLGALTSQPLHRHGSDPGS

Compound | IC50 (IL-17A production; CytoStim, 48 h) [nM] | hERG Assay (Compound at 3 μM) % Inhibition (Assay 4) [1] [%] | further results
CCS(=O)(=O)c1ccc(CNC(=O)c2cnc3c(c2)CN(C[C@H]2CC[C@H](C(F)(F)F)CC2)[C@H]3C(C)C)cc1 | – | – | hERG Assay (Compound at 3 μM) % Inhibition (Assay 4) ([1]; comparator compounds): 57.0%
CCS(=O)(=O)c1ccc(CNC(=O)c2cnc3c(c2)CN(C[C@H]2CC[C@H](C(F)(F)F)CC2)[C@H]3C(C)C)nc1 | – | – | IC50 (IL-17A production; comparator compounds): > 200 nM; hERG Assay (Compound at 3 μM) % Inhibition (Assay 4) ([1]; comparator compounds): 45.4%
CC[C@H]1c2ncc(C(=O)N[C@@H](COC)c3ccc(S(=O)(=O)CC)cc3)cc2CN1C[C@H]1CC[C@H](C(F)(F)F)CC1 [Compound 1, (S)-7-ethyl-N—((R)-1-(4-(ethylsulfonyl)phenyl)-2-methoxyethyl)-6-((trans-4-(trifluoromethyl)cyclohexyl)methyl)-6,7-dihydro-5H-pyrrolo[3,4-b]pyridine-3-carboxamide] | – | 24.3 | –
CC[C@H]1c2ncc(C(=O)N[C@@H](COC(N)=O)c3ccc(S(=O)(=O)CC)cc3)cc2CN1C[C@H]1CC[C@H](C(F)(F)F)CC1 [Compound 2, (R)-2-((S)-7-ethyl-6-((trans-4-(trifluoromethyl)cyclohexyl)methyl)-6,7-dihydro-5H-pyrrolo[3,4-b]pyridine-3-carboxamido)-2-(4-(ethylsulfonyl)phenyl)ethyl Carbamate] | – | 38.8 | –
CCOC[C@H](NC(=O)c1cnc2c(c1)CN(C[C@H]1CC[C@H](C(F)(F)F)CC1)[C@H]2C(C)C)c1ccc(S(=O)(=O)CC)cc1 [Compound 7] | – | – | Ki [2]: < 100 nM; IC50 (full-length RORγt): 100 to 1000 nM
CCS(=O)(=O)c1ccc([C@H](COC)NC(=O)c2cnc3c(c2)CN(C[C@H]2CC[C@H](C(F)(F)F)CC2)[C@H]3C(C)C)cc1 [Compound 15] | < 100 | 50 | –

Further lines, with some results ahead:

IC50 (IL-17A production; CytoStim, 48 h) [nM] | Compound | hERG Assay (Compound at 3 μM) % Inhibition (Assay 4) [1] [%] | further results
< 100 | CC[C@H]1c2ncc(C(=O)N[C@@H](COC)c3ccc(S(=O)(=O)CC)cc3)cc2CN1C[C@H]1CC[C@H](C(F)(F)F)OC1 (single isomer, unassigned) [Compound 3] | 24.3 | –
< 100 | CC[C@H]1c2ncc(C(=O)N[C@@H](COC)c3ccc(S(=O)(=O)CC)cc3)cc2CN1C[C@@H]1CC[C@@H](C(F)(F)F)OC1 (single isomer, unassigned) [Compound 4] | – | –
100 to 200 | CCS(=O)(=O)c1ccc([C@@H](COC(N)=O)NC(=O)c2cnc3c(c2)CN(C[C@H]2CC[C@H](C(F)(F)F)CC2)[C@H]3C(C)C)cc1 [Compound 12] | 38.8 | –
